Assay results taken from patent US20210317109A1, “TRICYCLIC SUBSTITUTED PIPERIDINE DIONE COMPOUND” (MEDSHINE DISCOVERY INC., priority 2018, published 2021).
Where a name gives a salt, the structure may show the parent alone.

Tests used:
[1] = tested on: OCI-LY10 cell line; assay: Anti-proliferative effect in lymphoma cell line OCI-LY10 (CellTiter-Glo); assay type: cell-based; conditions: Homo sapiens, OCI-Ly10, 120 h; incubate with the compound for 5 days
Protocol: (§1) Experiment object: In this experiment, the inhibitory effects of the test compounds on cell proliferation in the diffuse large B-cell lymphoma cell lines OCI-LY10 and DOHH2, and the mantle cell lymphoma cell line Mino were tested.
(§2) The tumor cell lines were cultured in an incubator at 37° C. and 5% CO2 under the above-mentioned culture conditions. The cells were passaged regularly, and cells in the logarithmic growth phase were taken for planting.
(§3) (1). The cells were stained with trypan blue and live cells were counted.
(§4) (2). The cell concentration was adjusted to an appropriate concentration.
(§5) (3). 90 μL of cell suspension was added to each well of the culture plate as shown in the table above, and cell-free culture solution was added to the blank control well.
(4). The culture plates were incubated overnight at 37° C., 5% CO2, and 100% relative humidity in an incubator. […]
(§6) The following steps followed the instructions of Promega CellTiter-Glo Luminescence Cell Viability Detection Kit (Promega-G7573). […]
(§7) (8). The culture plates were left at room temperature for 10 minutes to stabilize the luminescence signal.
(§8) (9). The luminous signal was detected on the 2104 EnVision plate reader. […]

[2] = tested on: DOHH2 cell line; assay: Anti-proliferative effect in lymphoma cell line DOHH2 (CellTiter-Glo); assay type: cell-based; conditions: Homo sapiens, DOHH-2, 96 h; incubate with the compound for 4 days
Protocol: as §1, §2, §3, §4, §5
(§9) (4). The culture plates were incubated overnight at 37° C., 5% CO2, and 100% relative humidity in an incubator.
(§10) The mother liquor storage plate with a compound concentration of 400 times the working concentration of the compound was prepared: The compound was gradually diluted with DMSO from the highest concentration to the lowest concentration. The compound was freshly formulated when use every time.
(§11) (1). Formulation of a working solution with a compound concentration of […] the working concentration of the compound: 76 μL of cell culture solution was added to a 96-well plate with a V-shaped bottom, and 4 μL of the compound was pipetted from the mother liquor storage plate with a compound concentration of […] the working concentration of the compound to the cell culture solution of the 96-well plate. 4 μL of DMSO was added to the vehicle control and blank control. After adding the compound or DMSO, a multi-channel pipette was used for pipetting and mixing well. […]
as §6, §7, §8

[3] = tested on: Mino cell line; assay: Anti-proliferative effect in mantle cell lymphoma cell line Mino (CellTiter-Glo); assay type: cell-based; conditions: Homo sapiens, 96 h, incubate with the compound for 4 days
Protocol: as §1, §2, §3, §4, §5, §9, §10, §11, §6, §7, §8

[4] = Pharmacokinetic properties of test compound in mice (oral); assay type: in vivo, C57BL male mice; conditions: for oral plasma systemic exposures (AUC0-inf), in words / Area under the drug-time curve (0-inf) / Peak concentration / Time to peak: mice; for Area under the drug-time curve (0-inf) / Peak concentration / Time to peak: oral 10 mg/kg, plasma; for pharmacokinetic properties, in words: rodent mice
Source text: In this study, C57BL male mice were selected as the test animals. A LC-MS/MS method was used to quantitatively determine the drug concentration in the plasma after oral administration of the test compound and the reference compound, to evaluate the pharmacokinetic profile of the test compound in mice.
C57Balb/c (C57) mice (male, 20-30 g, 7-10 weeks old, Beijing Vital River or Shanghai SLAC).
A clear solution or suspension of the test compound was administrated to C57 mice (fasted overnight) by oral gavage. Blood was collected from jugular vein at pre-dose and 0.5, 1, 2, 4, 6, 8, 24 hours post-dose, the collected blood samples were placed in an anticoagulant tube (Jiangsu Kangjian Medical Co., Ltd.) supplemented with EDTA-K2, and the mixture was vortexed and centrifuged at 13000 rpm for 10 minutes. The LC-MS/MS method was used to determine the plasma concentration of test compounds, and the relevant pharmacokinetic parameters were calculated using non-compartmental model linear logarithmic trapezoidal method by WinNonlinTM Version 6.3 (Pharsight, Mountain View, Calif.).

[5] = tested on: human lymphoma OCI-LY10 cells subcutaneous xenograft tumor
Protocol: Cells culture: Human lymphoma OCI-LY10 cells (National Cancer Institute) were cultured in a monolayer in vitro. The culture conditions were RPMI-1640 medium with 10% fetal bovine serum, 100 U/mL penicillin and […] streptomycin, 37° C., 5% CO2 incubator culture. Conventional digestion treatment with pancreatin-EDTA for passage was carried out twice a week. When the cell saturation was 80% to 90%, and the number reached the requirement, the cells were collected, counted and inoculated.
Animal: CB-17 SCID mouse, female, 6-8 weeks old, weighing 18-22 grams. Protocols:
0.2 mL (10×10^6 cells) of OCI-LY10 cells (with matrigel in a volume ratio of 1:1) were subcutaneously inoculated on the right back of each mouse. The grouping and administration were started when the average tumor volume reached about 139 mm^3. One dosing cycle was seven days, and the compound was administered once a day with an interval of 24 hours. The test compound was administered orally for a total of four cycles. The dose of the test compound WX002 was 60 mg/kg, the tumor volume was measured twice a week with a two-dimensional caliper, and the volume was measured in cubic millimeters, calculated by the following formula: V =0.5a×b^2, in which a and b were the long diameter and short diameter of the tumor, respectively. The anti-tumor efficacy was determined by dividing average increase of tumor volume of animals treated with the compound by that of untreated animals.

[6] = 60 mg/kg oral once a day, Day 27

Work on `O=C1CCC(c2coc3ccc4occc4c23)C(=O)N1` (centres unmarked) [WX004] yielded an IC50 [1] of 17 nM, an IC50 [2] of 144 nM and an IC50 [3] of 7 nM. The “oral plasma systemic exposures (AUC0-inf), in words” value (from here on “oral plasma systemic exposures”) [4] was “higher oral plasma systemic exposures”, the “Area under the drug-time curve (0-inf)” value [4] was 5.50 µM·h and the Peak concentration [4] was 6.54 µM. The Time to peak [4] was 0.25 h and the “pharmacokinetic properties, in words” value [4] was “better pharmacokinetic properties”.
For `O=C1CCC(c2coc3ccc4[nH]ccc4c23)C(=O)N1` (centres unmarked) [WX007], the “oral plasma systemic exposures” value [4] was “higher oral plasma systemic exposures”, the “Area under the drug-time curve (0-inf)” value [4] was 7.79 µM·h and the Peak concentration [4] was 12.95 µM. For the same compound, the Time to peak [4] was 0.08 h and the “pharmacokinetic properties, in words” value [4] was “better pharmacokinetic properties”.
With `CCOC(=O)Cc1coc2ccc3cc(OCCN(C)C)ccc3c12` [Hydrochloride of WX008] the “oral plasma systemic exposures” value [4] was “higher oral plasma systemic exposures”, the “Area under the drug-time curve (0-inf)” value [4] was 10.27 µM·h and the Peak concentration [4] was 4.88 µM. For the same compound, the Time to peak [4] was 1.00 h and the “pharmacokinetic properties, in words” value [4] was “better pharmacokinetic properties”.
`Cc1cc2c(ccc3occ(C4CCC(=O)NC4=O)c32)o1` (centres unmarked) [WX005] showed an IC50 [2] of 165 nM and an IC50 [3] of 10 nM.
`O=C1CCC(c2coc3ccc4ccccc4c23)C(=O)N1` (centres unmarked) [WX002] showed an IC50 [1] of 26 nM, an IC50 [2] of 97 nM and an IC50 [3] of 8 nM. The “Area under the drug-time curve (0-inf)” value [4] was 2.49 µM·h, the Peak concentration [4] was 2.83 µM and the Time to peak [4] was 0.50 h. For the same compound, the “Tumor volume (Day 1)” value ([5]; 60 mg/kg oral once a day, Day 1 (start of administration)) was 139 ± 10 mm^3, the “TGI (Day 27)” value [5, 6] was 111% and the “Tumor volume (Day 27)” value [5, 6] was 35 ± 10 mm^3. For the same compound, the “effect on the human lymphoma OCI-LY10 in vivo pharmacodynamic model, in words” value ([5]; mouse, in vivo) was “significant tumor-shrinking effect”.
For `O=C1CCC(c2coc3ccc4cc(OCCN5CCOCC5)ccc4c23)C(=O)N1` (centres unmarked) [Hydrochloride of WX020], the “oral plasma systemic exposures” value [4] was “higher oral plasma systemic exposures”, the “Area under the drug-time curve (0-inf)” value [4] was 18.38 µM·h and the Peak concentration [4] was 8.56 µM. For the same compound, the Time to peak [4] was 0.25 h and the “pharmacokinetic properties, in words” value [4] was “better pharmacokinetic properties”.
